This is an account of results in the supplement of paper PMC10307832.

Experiment in all cases: relative viability (nuclei count vs DMSO), 5 days (fraction); higher = more cells survive
Compound in assay [1]: O[C@H]1CC[C@H](Nc2ncc3nc(Nc4c(F)cc(F)cc4F)n([C@H]4CCOC4)c3n2)CC1 [Tanzisertib] + CC1(C)CCC(c2ccc(Cl)cc2)=C(CN2CCN(c3ccc(C(=O)NS(=O)(=O)c4ccc(N[C@H](CCN5CCOCC5)CSc5ccccc5)c(S(=O)(=O)C(F)(F)F)c4)cc3)CC2)C1 [Navitoclax] (partner 0.5 µM)
In outline:
(§1)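 Lung cancer cell lines were pin-tool dosed in 1536-well plates on the day after seeding, with either a lone drug or a fixed anchor-drug dose plus five library-drug doses (not always all listed) in √10 steps. Nuclei were counted on 4× images after 5 days. Relative viability is the ratio of treated-well to vehicle-well nuclei counts, with each value a median of duplicate plates.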

Compound in assay [2]: O[C@H]1CC[C@H](Nc2ncc3nc(Nc4c(F)cc(F)cc4F)n([C@H]4CCOC4)c3n2)CC1 [Tanzisertib] + Nc1nc2[nH]cc(CCc3ccc(C(=O)N[C@@H](CCC(=O)O)C(=O)O)cc3)c2c(=O)[nH]1 [Pemetrexed] (partner 0.2 µM)
In outline:
as §1

Compound in assay [3]: O[C@H]1CC[C@H](Nc2ncc3nc(Nc4c(F)cc(F)cc4F)n([C@H]4CCOC4)c3n2)CC1 [Tanzisertib] + Cc1nc(Nc2ncc(C(=O)Nc3c(C)cccc3Cl)s2)cc(N2CCN(CCO)CC2)n1 [Dasatinib] (partner 0.075 µM)
In outline: as §1

Compound in assay [4]: O[C@H]1CC[C@H](Nc2ncc3nc(Nc4c(F)cc(F)cc4F)n([C@H]4CCOC4)c3n2)CC1 [Tanzisertib] + COc1cc2c(Oc3ccc(NC(=O)C4(C(=O)Nc5ccc(F)cc5)CC4)cc3F)ccnc2cc1OCCCN1CCOCC1 [Foretinib] (partner 0.25 µM)
Summed up: as §1

Take NCI-H2228: the relative viability was found to be 0.985 in assay [1] (first compound 0.08 µM); 1.06 in assay [1] (first compound 0.253 µM); 1.07 in assay [1] (first compound 0.8 µM); 1.04 in assay [1] (first compound 2.53 µM); 0.742 in assay [1] (first compound 8 µM); 0.371 in assay [2] (first compound 0.08 µM). Further, the relative viability in assay [2] (first compound 0.253 µM) is 0.288; in assay [2] (first compound 0.8 µM), 0.378; in assay [2] (first compound 2.53 µM), 0.355; in assay [2] (first compound 8 µM), 0.348; in assay [3] (first compound 0.08 µM), 0.624; in assay [3] (first compound 0.253 µM), 0.524. Also, the relative viability in assay [3] (first compound 0.8 µM) was determined as 0.537; in assay [3] (first compound 2.53 µM), 0.462; in assay [3] (first compound 8 µM), 0.433; in assay [4] (first compound 0.08 µM), 0.961; in assay [4] (first compound 0.253 µM) it was 0.869; in assay [4] (first compound 0.8 µM), 0.928. For the same cell line, the results for the relative viability in assay [4] (first compound 2.53 µM) and in assay [4] (first compound 8 µM) were 0.733 and 0.68, respectively.
NCI-H2347: the relative viability in assay [1] (first compound 0.08 µM) amounted to 0.793; in assay [1] (first compound 0.253 µM) it was 0.809; in assay [1] (first compound 0.8 µM), 0.888; in assay [1] (first compound 2.53 µM), 0.87; in assay [1] (first compound 8 µM), 0.837; in assay [2] (first compound 0.08 µM) it was 0.454. In addition, the relative viability in assay [2] (first compound 0.253 µM) was 0.468; in assay [2] (first compound 0.8 µM) it was 0.435; in assay [2] (first compound 2.53 µM), 0.408; in assay [2] (first compound 8 µM), 0.442; in assay [3] (first compound 0.08 µM), 0.333; in assay [3] (first compound 0.8 µM) it was 0.309. For the same cell line, the relative viability in assay [3] (first compound 2.53 µM) was 0.26; in assay [3] (first compound 8 µM), 0.303; in assay [4] (first compound 0.08 µM), 1.12; in assay [4] (first compound 0.253 µM), 0.792; in assay [4] (first compound 0.8 µM) it was 0.95; in assay [4] (first compound 2.53 µM), 1.25. The relative viability in assay [4] (first compound 8 µM) worked out at 0.629.
Regarding NCI-H2405, the relative viability in assay [1] (first compound 0.08 µM) amounted to 0.968; in assay [1] (first compound 0.253 µM) it was 0.837; in assay [1] (first compound 0.8 µM), 1.02; in assay [1] (first compound 2.53 µM), 1.03; in assay [1] (first compound 8 µM) it was 0.688; in assay [2] (first compound 0.08 µM) it was 1.1. Further, the relative viability in assay [2] (first compound 0.253 µM) came out at 1.1; in assay [2] (first compound 0.8 µM) it was 1; in assay [2] (first compound 2.53 µM) it was 1.24; in assay [2] (first compound 8 µM), 0.955; in assay [3] (first compound 0.08 µM), 0.228; in assay [3] (first compound 0.253 µM), 0.225. Moreover, the relative viability in assay [3] (first compound 0.8 µM) worked out at 0.195; in assay [3] (first compound 2.53 µM), 0.227; in assay [3] (first compound 8 µM), 0.188; in assay [4] (first compound 0.08 µM) it was 1.1; in assay [4] (first compound 0.253 µM) it was 1.08; in assay [4] (first compound 0.8 µM) it was 1.07. Further, the relative viability in assay [4] (first compound 2.53 µM) was 1.17; in assay [4] (first compound 8 µM) it was 1.03.
Take NCI-H3122: the relative viability was found to be 1.03 in assay [1] (first compound 0.08 µM); 1.02 in assay [1] (first compound 0.253 µM); 1.04 in assay [1] (first compound 0.8 µM); 1.07 in assay [1] (first compound 2.53 µM); 0.972 in assay [1] (first compound 8 µM); 0.2 in assay [2] (first compound 0.08 µM). Besides, the relative viability in assay [2] (first compound 0.253 µM) is 0.192; in assay [2] (first compound 0.8 µM), 0.193; in assay [2] (first compound 2.53 µM) it was 0.19; in assay [2] (first compound 8 µM) it was 0.188; in assay [3] (first compound 0.08 µM), 0.775; in assay [3] (first compound 0.253 µM), 0.817. In addition, the relative viability in assay [3] (first compound 0.8 µM) turned out to be 0.791; in assay [3] (first compound 2.53 µM) it was 0.92; in assay [3] (first compound 8 µM), 0.926; in assay [4] (first compound 0.08 µM) it was 1.1; in assay [4] (first compound 0.253 µM), 0.951; in assay [4] (first compound 0.8 µM), 1.03. Also, the relative viability in assay [4] (first compound 2.53 µM) stood at 0.99; in assay [4] (first compound 8 µM), 1.01.
Turning to PC-3 [JPC-3], the relative viability in assay [1] (first compound 0.08 µM) was found to be 0.898; in assay [1] (first compound 0.253 µM), 0.815; in assay [1] (first compound 0.8 µM) it was 0.866; in assay [1] (first compound 2.53 µM), 0.81; in assay [1] (first compound 8 µM), 0.853; in assay [2] (first compound 0.08 µM), 1.16. The relative viability in assay [2] (first compound 0.253 µM) stood at 1.3; in assay [2] (first compound 0.8 µM), 1.23; in assay [2] (first compound 2.53 µM), 1.04; in assay [2] (first compound 8 µM), 0.466; in assay [3] (first compound 0.08 µM) it was 0.912; in assay [3] (first compound 0.253 µM) it was 1.04. Also, the relative viability in assay [3] (first compound 0.8 µM) turned out to be 1.01; in assay [3] (first compound 2.53 µM), 0.977; in assay [3] (first compound 8 µM), 0.886; in assay [4] (first compound 0.08 µM), 1.07; in assay [4] (first compound 0.253 µM), 1.06; in assay [4] (first compound 0.8 µM), 1.08. Further, the relative viability in assay [4] (first compound 2.53 µM) is 1.06; in assay [4] (first compound 8 µM) it was 0.889.
